Measurements taken from ChEMBL document CHEMBL1649156, “Antianaerobic activity of sulopenem compared to six other agents” (2009).

How the values were obtained:
Assay type in all cases: functional
Hoylesella oralis = assay: Antimicrobial activity in Prevotella oralis group by CLSI agar dilution method
Prevotella veroralis = assay: Antimicrobial activity in Prevotella veroralis by CLSI agar dilution method
Prevotella bergensis = assay: Antimicrobial activity in Prevotella bergensis by CLSI agar dilution method; details: Hallella bergensis
Prevotella salivae = assay: Antimicrobial activity in Prevotella salivae by CLSI agar dilution method; details: Segatella salivae
Hoylesella loescheii = assay: Antimicrobial activity in Prevotella loescheii by CLSI agar dilution method
Prevotella sp. = assay: Antimicrobial activity in Prevotella sp.by CLSI agar dilution method
Fusobacterium nucleatum = assay: Antimicrobial activity in Fusobacterium nucleatum by CLSI agar dilution method
[1] = system: Fusobacterium necrophorum; assay: Antimicrobial activity in Fusobacterium necrophorum by CLSI agar dilution method
Fusobacterium mortiferum = assay: Antimicrobial activity in Fusobacterium mortiferum by CLSI agar dilution method
Fusobacterium varium = assay: Antimicrobial activity in Fusobacterium varium by CLSI agar dilution method
Finegoldia magna = assay: Antimicrobial activity in Finegoldia magna by CLSI agar dilution method
Parvimonas micra = assay: Antimicrobial activity in Micromonas micros by CLSI agar dilution method
[2] = system: Peptostreptococcus anaerobius; assay: Antimicrobial activity in Peptostreptococcus anaerobius by CLSI agar dilution method
[3] = system: Peptoniphilus asaccharolyticus; assay: Antimicrobial activity in Peptoniphilus asaccharolyticus by CLSI agar dilution method
Anaerococcus tetradius = assay: Antimicrobial activity in Anaerococcus tetradius by CLSI agar dilution method
Anaerococcus prevotii = assay: Antimicrobial activity in Anaerococcus prevotii by CLSI agar dilution method
Lactobacillus = assay: Antimicrobial activity in Lactobacillus by CLSI agar dilution method
Bifidobacterium = assay: Antimicrobial activity in Bifidobacterium by CLSI agar dilution method
Actinomyces = assay: Antimicrobial activity in Actinomyces by CLSI agar dilution method
Eggerthella lenta = assay: Antimicrobial activity in Eggerthella lenta by CLSI agar dilution method
Clostridium perfringens = assay: Antimicrobial activity in Clostridium perfringens by CLSI agar dilution method
Clostridioides difficile = assay: Antimicrobial activity in Clostridium difficile by CLSI agar dilution method
Clostridium sp. = assay: Antimicrobial activity in Clostridium sp. by CLSI agar dilution method
Clostridium tertium = assay: Antimicrobial activity in Clostridium tertium by CLSI agar dilution method
Thomasclavelia ramosa = assay: Antimicrobial activity in Clostridium ramosum by CLSI agar dilution method
Clostridium cadaveris = assay: Antimicrobial activity in Clostridium cadaveris by CLSI agar dilution method
[4] = system: Paraclostridium bifermentans; assay: Antimicrobial activity in Clostridium bifermentans by CLSI agar dilution method
[Clostridium] innocuum = Antimicrobial activity in Clostridium innocuum by CLSI agar dilution method
[5] = system: Paeniclostridium sordellii; assay: Antimicrobial activity in Clostridium sordellii by CLSI agar dilution method; details: Paraclostridium sordellii
Clostridium butyricum = assay: Antimicrobial activity in Clostridium butyricum by CLSI agar dilution method
[6] = system: Enterocloster clostridioformis; assay: Antimicrobial activity in Clostridium clostridioforme by CLSI agar dilution method
Bacteroides fragilis = assay: Antimicrobial activity in Bacteroides fragilis by CLSI agar dilution method
[7] = system: Bacteroides thetaiotaomicron; assay: Antimicrobial activity in Bacteroides thetaiotaomicron by CLSI agar dilution method
Bacteroides ovatus = assay: Antimicrobial activity in Bacteroides ovatus by CLSI agar dilution method
Phocaeicola vulgatus = assay: Antimicrobial activity in Bacteroides vulgatus by CLSI agar dilution method
[8] = system: Parabacteroides distasonis; assay: Antimicrobial activity in Bacteroides distasonis by CLSI agar dilution method
Bacteroides uniformis = assay: Antimicrobial activity in Bacteroides uniformis by CLSI agar dilution method
Bacteroides stercoris = assay: Antimicrobial activity in Bacteroides stercoris by CLSI agar dilution method
Prevotella bivia = assay: Antimicrobial activity in Prevotella bivia by CLSI agar dilution method
Prevotella buccae = assay: Antimicrobial activity in Prevotella buccae by CLSI agar dilution method; details: Segatella buccae
[9] = system: Prevotella melaninogenica; assay: Antimicrobial activity in Prevotella melaninogenica by CLSI agar dilution method
Prevotella denticola = assay: Antimicrobial activity in Prevotella denticola by CLSI agar dilution method
Prevotella intermedia = assay: Antimicrobial activity in Prevotella intermedia by CLSI agar dilution method
Prevotella nigrescens = assay: Antimicrobial activity in Prevotella nigrescens by CLSI agar dilution method
Prevotella corporis = assay: Antimicrobial activity in Prevotella corporis by CLSI agar dilution method
Prevotella disiens = assay: Antimicrobial activity in Prevotella disiens by CLSI agar dilution method
Tissierella praeacuta = assay: Antimicrobial activity in Clostridium hastiforme by CLSI agar dilution method
Porphyromonas gingivalis = assay: Antimicrobial activity in Porphyromonas gingivalis by CLSI agar dilution method

CCC[C@@H]1C[C@@H](C(=O)N[C@@H]([C@H]2O[C@H](SC)[C@H](O)[C@@H](O)[C@H]2O)[C@H](C)Cl)N(C)C1 [CLINDAMYCIN]
> 1 µg/mL: MIC (Bacteroides uniformis)
16 µg/mL: MIC90 (Clostridium sp.) | MIC90 [8]
4 µg/mL: MIC90 (Lactobacillus) | MIC50 (Clostridioides difficile) | MIC50 [7] | MIC50 [8]
0.06 µg/mL: MIC50 (Fusobacterium nucleatum) | MIC50 (Fusobacterium mortiferum) | MIC [3] | MIC (Clostridium cadaveris) | MIC90 [9] | MIC90 (Prevotella denticola) | MIC (Tissierella praeacuta)
> 4 µg/mL: MIC (Bacteroides stercoris)
≤ 0.016 µg/mL: MIC (Hoylesella oralis) | MIC (Prevotella veroralis) | MIC (Prevotella bergensis) | MIC (Prevotella salivae) | MIC (Hoylesella loescheii) | MIC (Prevotella sp.) | MIC [1] | MIC [2] | MIC50 [2] | MIC50 (Prevotella bivia) | MIC (Prevotella buccae) | MIC50 (Prevotella buccae) | MIC90 (Prevotella buccae) | MIC [9] | MIC50 [9] | MIC (Prevotella denticola) | MIC50 (Prevotella denticola) | MIC (Prevotella intermedia) | MIC50 (Prevotella intermedia) | MIC90 (Prevotella intermedia) | MIC (Prevotella nigrescens) | MIC50 (Prevotella nigrescens) | MIC90 (Prevotella nigrescens) | MIC50 (Prevotella corporis) | MIC (Prevotella disiens) | MIC50 (Prevotella disiens) | MIC (Porphyromonas gingivalis)
32 µg/mL: MIC90 (Fusobacterium varium)
2 µg/mL: MIC90 (Finegoldia magna) | MIC90 (Clostridium perfringens) | MIC (Thomasclavelia ramosa) | MIC (Clostridium butyricum) | MIC50 (Bacteroides ovatus) | MIC50 (Bacteroides uniformis)
0.5 µg/mL: MIC50 (Anaerococcus tetradius) | MIC50 (Lactobacillus) | MIC50 (Clostridium perfringens)
0.125 µg/mL: MIC90 (Fusobacterium nucleatum) | MIC90 (Fusobacterium mortiferum) | MIC50 (Finegoldia magna) | MIC (Parvimonas micra) | MIC50 (Parvimonas micra) | MIC50 [3] | MIC (Anaerococcus prevotii) | MIC50 (Actinomyces) | MIC [4]
> 32 µg/mL: MIC90 (Bifidobacterium) | MIC90 (Clostridioides difficile) | MIC90 (Bacteroides fragilis) | MIC90 [7] | MIC90 (Bacteroides ovatus) | MIC90 (Prevotella bivia)
8 µg/mL: MIC50 (Fusobacterium varium) | MIC (Clostridium tertium) | MIC50 (Clostridium tertium) | MIC50 (Bacteroides stercoris)
0.03 µg/mL: MIC50 [1] | MIC50 (Bifidobacterium) | MIC (Actinomyces) | MIC ([Clostridium] innocuum) | MIC [6] | MIC50 (Phocaeicola vulgatus)
1 µg/mL: MIC90 (Anaerococcus tetradius) | MIC90 (Eggerthella lenta) | MIC50 (Clostridium sp.) | MIC50 (Bacteroides fragilis) | MIC90 (Phocaeicola vulgatus)
0.25 µg/mL: MIC90 (Parvimonas micra) | MIC90 [2] | MIC50 (Eggerthella lenta) | MIC [5]
